Like-named read-outs stand apart in the source and are kept apart here.
Columns and labels:
Assay in all cases: microbe, parasite or virus in culture
Type in all cases: cell-based
SARS-CoV replicon = settings: Severe acute respiratory syndrome coronavirus, HEK-293T, 60 h
SARS-CoV-2 replicon = settings: HEK293T cells; for IC50 / inhibition at 10 µM: Severe acute respiratory syndrome coronavirus 2, HEK-293T, 60 h
SARS-CoV-2 (B.1) = test system: SARS-CoV-2 (B.1)
[1] = Severe acute respiratory syndrome coronavirus 2, Vero C1008, 48 h

Structure (SMILES)	IC50 (SARS-CoV-2 replicon)	inhibition at 10 µM (SARS-CoV-2 replicon)	other results
CC(C)C(=O)Nc1ncnn2c([C@]3(C#N)O[C@H](COC(=O)C(C)C)[C@@H](OC(=O)C(C)C)[C@H]3OC(=O)C(C)C)ccc12 [ATV001, (2R,3R,4R,5R)-2-cyano-2-(4-isobutyramidopyrrolo[2,1-f][1,2,4]triazin-7-PGP-yl)-5-((isobutyryloxy)methyl)tetrahydrofuran-3,4-diyl bis(2-methylpropanoate)]	> 50000 nM		inhibition at 10 µM (SARS-CoV replicon): 66.8%; antiviral activity relative to GS-441524 (SARS-CoV-2 replicon; in words): significantly lower than that of GS-441524
CC(=O)Nc1ncnn2c([C@]3(C#N)O[C@H](COC(C)=O)[C@@H](OC(C)=O)[C@H]3OC(C)=O)ccc12 [ATV002, (2R,3R,4R,5R)-2-(4-acetamidopyrrolo[2,1-f][1,2,4]triazin-7-yl)-5-(acetoxymethyl)-2-cyanotetrahydrofuran-3,4-diyl diacetate]	> 50000 nM		inhibition at 10 µM (SARS-CoV replicon): 61%; antiviral activity relative to GS-441524 (SARS-CoV-2 replicon; in words): significantly lower than that of GS-441524
CC(=O)OC[C@H]1O[C@@](C#N)(c2ccc3c(N)ncnn23)[C@H](OC(C)=O)[C@@H]1OC(C)=O [ATV003, (2R,3R,4R,5R)-5-(acetoxymethyl)-2-(4-aminopyrrolo[2,1-f][1,2,4]triazin-7-yl)-2-cyanotetrahydrofuran-3,4-diyl diacetate]	830 nM	97.6%	IC50 (SARS-CoV replicon): 910 nM; inhibition at 10 µM (SARS-CoV replicon): 98.8%
CC(C)C(=O)OC[C@H]1O[C@@](C#N)(c2ccc3c(N)ncnn23)[C@H](OC(=O)C(C)C)[C@@H]1OC(=O)C(C)C [ATV004, (2R,3R,4R,5R)-2-(4-aminopyrrolo[2,1-f][1,2,4]triazin-7-yl)-2-cyano-5-((isobutyryloxy)methyl)tetrahydrofuran-3,4-diyl bis(2-methylpropanoate)]	680 nM	97.5%	inhibition at 5 µM (SARS-CoV replicon): 91.8%; antiviral activity relative to GS-441524 (SARS-CoV-2 replicon; in words): improved
CCCCCOC(=O)Nc1ncnn2c([C@]3(C#N)O[C@H](CO)[C@@H](O)[C@H]3O)ccc12 [ATV005, Pentyl (7-((2R,3R,4S,5R)-2-cyano-3,4-dihydroxy-5-(hydroxymethyl)tetrahydrofuran-2-yl)pyrrolo[2,1-f][1,2,4]triazin-4-yl)carbamate]	> 50000 nM		inhibition at 10 µM (SARS-CoV replicon): 73.3%
CC(=O)OC[C@H]1O[C@@](C#N)(c2ccc3c(N)ncnn23)[C@H](O)[C@@H]1O [ATV007, ((2R,3S,4R,5R)-5-(4-aminopyrrolo[2,1-f][1,2,4]triazin-7-yl)-5-cyano-3,4-dihydroxytetrahydrofuran-2-yl)methyl acetate]		91.6%	
CCC(=O)OC[C@H]1O[C@@](C#N)(c2ccc3c(N)ncnn23)[C@H](O)[C@@H]1O [ATV008, ((2R,3S,4R,5R)-5-(4-aminopyrrolo[2,1-f][1,2,4]triazin-7-yl)-5-cyano-3,4-dihydroxytetrahydrofuran-2-yl)methyl propionate]		98.2%	
CCCC(=O)OC[C@H]1O[C@@](C#N)(c2ccc3c(N)ncnn23)[C@H](O)[C@@H]1O [ATV009, ((2R,3S,4R,5R)-5-(4-aminopyrrolo[2,1-f][1,2,4]triazin-7-yl)-5-cyano-3,4-dihydroxytetrahydrofuran-2-yl)methyl butyrate]	220 nM	98.8%	antiviral activity relative to GS-441524 (SARS-CoV-2 replicon; in words): improved; IC50 (SARS-CoV-2 (B.1); [1]): 1330 nM
CCCCCCCCC(=O)OC[C@H]1O[C@@](C#N)(c2ccc3c(N)ncnn23)[C@H](O)[C@@H]1O [ATV010, ((2R,3S,4R,5R)-5-(4-aminopyrrolo[2,1-f][1,2,4]triazin-7-yl)-5-cyano-3,4-dihydroxytetrahydrofuran-2-yl)methyl nonanoate]	320 nM	99%	antiviral activity relative to GS-441524 (SARS-CoV-2 replicon; in words): improved; IC50 (SARS-CoV-2 (B.1); [1]): 696 nM
CCC(CC)C(=O)OC[C@H]1O[C@@](C#N)(c2ccc3c(N)ncnn23)[C@H](O)[C@@H]1O [ATV011, ((2R,3S,4R,5R)-5-(4-aminopyrrolo[2,1-f][1,2,4]triazin-7-yl)-5-cyano-3,4-dihydroxytetrahydrofuran-2-yl)methyl 2-ethylbutanoate]	320 nM	98.9%	antiviral activity relative to GS-441524 (SARS-CoV-2 replicon; in words): improved; IC50 (SARS-CoV-2 (B.1); [1]): 2120 nM
N#C[C@@]1(c2ccc3c(N)ncnn23)O[C@H](COC(=O)C2CC2)[C@@H](O)[C@H]1O [ATV012, ((2R,3S,4R,5R)-5-(4-aminopyrrolo[2,1-f][1,2,4]triazin-7-yl)-5-cyano-3,4-dihydroxytetrahydrofuran-2-yl)methyl cyclopropanecarboxylate]		97.1%	
N#C[C@@]1(c2ccc3c(N)ncnn23)O[C@H](COC(=O)c2ccccc2)[C@@H](O)[C@H]1O [ATV013, ((2R,3S,4R,5R)-5-(4-aminopyrrolo[2,1-f][1,2,4]triazin-7-yl)-5-cyano-3,4-dihydroxytetrahydrofuran-2-yl)methyl benzoate]	500 nM	97.7%	IC50 (SARS-CoV-2 (B.1); [1]): 2260 nM
N#C[C@@]1(c2ccc3c(N)ncnn23)O[C@H](COC(=O)C2CCCCC2)[C@@H](O)[C@H]1O [ATV014, ((2R,3S,4R,5R)-5-(4-aminopyrrolo[2,1-f][1,2,4]triazin-7-yl)-5-cyano-3,4-dihydroxytetrahydrofuran-2-yl)methyl cyclohexanecarboxylate]	260 nM	98.2%	antiviral activity relative to GS-441524 (SARS-CoV-2 replicon; in words): lower IC50 values and higher antiviral activity; inhibition of SARS-CoV-2 replicon replication (SARS-CoV-2 replicon; in words): significant inhibitory effects; IC50 (SARS-CoV-2 (B.1)): 331 nM
N#C[C@@]1(c2ccc3c(N)ncnn23)O[C@H](COC(=O)C2CCCC2)[C@@H](O)[C@H]1O [ATV015, ((2R,3S,4R,5R)-5-(4-aminopyrrolo[2,1-f][1,2,4]triazin-7-yl)-5-cyano-3,4-dihydroxytetrahydrofuran-2-yl)methyl cyclopentanecarboxylate]	710 nM	97.9%	
N#C[C@@]1(c2ccc3c(N)ncnn23)O[C@H](COC(=O)CC(F)(F)F)[C@@H](O)[C@H]1O [ATV016, ((2R,3S,4R,5R)-5-(4-aminopyrrolo[2,1-f][1,2,4]triazin-7-yl)-5-cyano-3,4-dihydroxytetrahydrofuran-2-yl)methyl3,3,3-trifluoropropanoate]	830 nM	97.2%	
CC(C)CC(=O)OC[C@H]1O[C@@](C#N)(c2ccc3c(N)ncnn23)[C@H](O)[C@@H]1O [ATV017, ((2R,3S,4R,5R)-5-(4-aminopyrrolo[2,1-f][1,2,4]triazin-7-yl)-5-cyano-3,4-dihydroxytetrahydrofuran-2-yl)methyl 3-methylbutanoate]	430 nM	97.2%	IC50 (SARS-CoV-2 (B.1); [1]): 2190 nM
CC(C)(C)C(=O)OC[C@H]1O[C@@](C#N)(c2ccc3c(N)ncnn23)[C@H](O)[C@@H]1O [ATV018, ((2R,3S,4R,5R)-5-(4-aminopyrrolo[2,1-f][1,2,4]triazin-7-yl)-5-cyano-3,4-dihydroxytetrahydrofuran-2-yl)methyl pivalate]	420 nM	97.5%	IC50 (SARS-CoV-2 (B.1); [1]): 938 nM
CC(C)[C@@H](N)C(=O)OC[C@H]1O[C@@](C#N)(c2ccc3c(N)ncnn23)[C@H](O)[C@@H]1O [ATV019, ((2R,3S,4R,5R)-5-(4-aminopyrrolo[2,1-f][1,2,4]triazin-7-yl)-5-cyano-3,4-dihydroxytetrahydrofuran-2-yl)methyl D-valinate]	970 nM	97.2%	IC50 (SARS-CoV replicon): 790 nM; inhibition at 10 µM (SARS-CoV replicon): 98.6%
CC(C)[C@H](N)C(=O)OC[C@H]1O[C@@](C#N)(c2ccc3c(N)ncnn23)[C@H](O)[C@@H]1O [ATV020, ((2R,3S,4R,5R)-5-(4-aminopyrrolo[2,1-f][1,2,4]triazin-7-yl)-5-cyano-3,4-dihydroxytetrahydrofuran-2-yl)methyl L-valinate]	2350 nM	99.2%	IC50 (SARS-CoV replicon): 1300 nM; inhibition at 10 µM (SARS-CoV replicon): 99.2%
N#C[C@@]1(c2ccc3c(N)ncnn23)O[C@H](COC(=O)[C@@H](N)Cc2ccccc2)[C@@H](O)[C@H]1O [ATV021, ((2R,3S,4R,5R)-5-(4-aminopyrrolo[2,1-f][1,2,4]triazin-7-yl)-5-cyano-3,4-dihydroxytetrahydrofuran-2-yl)methyl L-phenylalaninate]		0%	
N#C[C@@]1(c2ccc3c(N)ncnn23)O[C@H](COC(=O)[C@H](N)Cc2ccccc2)[C@@H](O)[C@H]1O [ATV022, ((2R,3S,4R,5R)-5-(4-aminopyrrolo[2,1-f][1,2,4]triazin-7-yl)-5-cyano-3,4-dihydroxytetrahydrofuran-2-yl)methyl D-phenylalaninate]		0%	
CCC(C)[C@H](N)C(=O)OC[C@H]1O[C@@](C#N)(c2ccc3c(N)ncnn23)[C@H](O)[C@@H]1O (stereo partly drawn) [ATV023, ((2R,3S,4R,5R)-5-(4-aminopyrrolo[2,1-f][1,2,4]triazin-7-yl)-5-cyano-3,4-dihydroxytetrahydrofuran-2-yl)methyl (2S)-2-amino-3-methylpentanoate]	950 nM	98.7%	
CCC(C)[C@@H](N)C(=O)OC[C@H]1O[C@@](C#N)(c2ccc3c(N)ncnn23)[C@H](O)[C@@H]1O (stereo partly drawn) [ATV024, ((2R,3S,4R,5R)-5-(4-aminopyrrolo[2,1-f][1,2,4]triazin-7-yl)-5-cyano-3,4-dihydroxytetrahydrofuran-2-yl)methyl (2R)-2-amino-3-methylpentanoate]	860 nM	99.1%	
CC(C)C(=O)OC[C@H]1O[C@@](C#N)(c2cc(F)c3c(N)ncnn23)[C@H](O)[C@@H]1O [ATV025, ((2R,3S,4R,5R)-5-(4-amino-5-fluoropyrrolo[2,1-f][1,2,4]triazin-7-yl)-5-cyano-3,4-dihydroxytetrahydrofuran-2-yl)methyl isobutyrate]	890 nM	97.8%	
CC1(C)O[C@H]2[C@@H](O1)[C@](C#N)(c1ccc3c(N)ncnn13)O[C@@H]2CO [Intermediate 5 of RDV, reference compound]	> 50000 nM		inhibition at 10 µM (SARS-CoV replicon): 75.9%

Reference: US20240317754A1 (priority 2020, published 2024)
